Consider four compounds from US20080194482A1, “Selective Apac2 Receptor Peptide Agonists” (priority 2005, published 2008).

In one data set the target is T1, human VPAC2 (Homo sapiens, UniProt P41587).
T1 construct: expressed in transfected cells
T1 sequence (P41587 24-438): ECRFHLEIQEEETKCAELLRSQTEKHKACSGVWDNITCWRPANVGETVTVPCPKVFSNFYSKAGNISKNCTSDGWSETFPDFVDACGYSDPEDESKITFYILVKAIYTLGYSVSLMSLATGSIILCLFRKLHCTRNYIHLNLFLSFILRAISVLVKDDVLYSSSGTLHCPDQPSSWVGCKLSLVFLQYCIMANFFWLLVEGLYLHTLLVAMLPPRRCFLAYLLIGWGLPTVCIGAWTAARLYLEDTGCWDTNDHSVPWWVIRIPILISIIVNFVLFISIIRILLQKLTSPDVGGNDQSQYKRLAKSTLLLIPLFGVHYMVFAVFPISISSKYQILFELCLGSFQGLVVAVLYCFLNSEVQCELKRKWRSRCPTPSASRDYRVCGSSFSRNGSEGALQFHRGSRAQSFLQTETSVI
In words: Alpha screen cAMP assay, in vitro potency at human VPAC2 receptor. It is filed as cell-based. The note with it: cAMP generation; single result from two analyses in a single run, some values average of more than one experiment.

A further data set deals with T2, human VPAC1 (Homo sapiens, UniProt P32241).
T2 construct: expressed in transfected cells
T2 sequence (P32241 31-457): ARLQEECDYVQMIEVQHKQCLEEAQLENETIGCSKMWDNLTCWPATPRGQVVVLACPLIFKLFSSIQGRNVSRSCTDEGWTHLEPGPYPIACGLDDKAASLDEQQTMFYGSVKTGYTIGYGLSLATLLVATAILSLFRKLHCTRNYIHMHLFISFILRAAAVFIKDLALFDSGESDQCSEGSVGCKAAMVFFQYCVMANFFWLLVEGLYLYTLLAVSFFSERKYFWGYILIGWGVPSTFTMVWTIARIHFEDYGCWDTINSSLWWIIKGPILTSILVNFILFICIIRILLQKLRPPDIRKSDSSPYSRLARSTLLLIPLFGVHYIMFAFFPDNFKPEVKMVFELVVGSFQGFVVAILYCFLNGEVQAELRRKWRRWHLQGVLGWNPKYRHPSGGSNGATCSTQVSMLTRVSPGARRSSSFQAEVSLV
The data set can be described thus: Filter binding assay, 125I-labeled VIP tracer, VPAC1 membranes. The settings on record: read-out: Human VPAC1 Receptor Binding (IC50; nM).

A further data set addresses T3, human PAC1 (Homo sapiens, UniProt P41586).
T3 construct: expressed in transfected cells
T3 sequence (P41586 21-468): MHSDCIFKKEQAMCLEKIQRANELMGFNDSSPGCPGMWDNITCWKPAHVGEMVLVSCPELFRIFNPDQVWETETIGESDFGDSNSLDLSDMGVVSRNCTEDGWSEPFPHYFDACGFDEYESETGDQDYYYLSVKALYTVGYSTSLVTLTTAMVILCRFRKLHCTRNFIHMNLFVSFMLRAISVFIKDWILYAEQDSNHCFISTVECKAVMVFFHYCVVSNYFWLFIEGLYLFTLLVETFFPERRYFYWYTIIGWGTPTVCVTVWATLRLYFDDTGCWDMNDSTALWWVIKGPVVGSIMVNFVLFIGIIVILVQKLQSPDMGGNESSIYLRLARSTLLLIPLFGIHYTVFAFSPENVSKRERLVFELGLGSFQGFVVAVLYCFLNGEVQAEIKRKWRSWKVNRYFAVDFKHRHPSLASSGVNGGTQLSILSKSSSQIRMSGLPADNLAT
The data set can be described thus: Filter binding assay, 125I-labeled PACAP-27 tracer, PAC1 membranes. The settings on record: read-out: Human PAC1 Receptor Binding (IC50; nM).

Data set [1] in a line: Rat serum stability (activity remaining, CHO-VPAC2 DiscoveRx read-out). It is filed as in vitro ADME. How it is done:
The rat serum is stored at 4° C. until use and is used within two weeks. […] The aliquot is stored with aprotinin at 4° C. The aliquot is stored without aprotinin at 37° C. The aliquots are incubated overnight. […] The plate(s) are washed with cells twice in incubation buffer. The plates are allowed to hold 50 μL incubation media per well for 15 minutes. 50 μL solution per well is transferred to the cells from the plate prepared with 11 serial 5× dilutions of peptide for the 4° C. and 37° C. aliquot for each peptide studied, using the maximal concentrations that are indicated by the primary screen, in duplicate. This step dilutes the peptide concentration by a factor of two. The cells are incubated at room temperature for 30 minutes. […] The cells are incubated on the shaker (300 rpm) for 1 hour. Normal procedure with the DiscoveRx kit is followed. cAMP standards are included in column 12. EC50 values are determined from the cAMP assay data.

In the next data set the target is T4, rat VPAC2 receptor (Rattus norvegicus, UniProt P35000).
T4 construct: expressed in transfected cells; host or cells: CHO-PO (transient, Lipofectamine)
T4 sequence (P35000 23-437): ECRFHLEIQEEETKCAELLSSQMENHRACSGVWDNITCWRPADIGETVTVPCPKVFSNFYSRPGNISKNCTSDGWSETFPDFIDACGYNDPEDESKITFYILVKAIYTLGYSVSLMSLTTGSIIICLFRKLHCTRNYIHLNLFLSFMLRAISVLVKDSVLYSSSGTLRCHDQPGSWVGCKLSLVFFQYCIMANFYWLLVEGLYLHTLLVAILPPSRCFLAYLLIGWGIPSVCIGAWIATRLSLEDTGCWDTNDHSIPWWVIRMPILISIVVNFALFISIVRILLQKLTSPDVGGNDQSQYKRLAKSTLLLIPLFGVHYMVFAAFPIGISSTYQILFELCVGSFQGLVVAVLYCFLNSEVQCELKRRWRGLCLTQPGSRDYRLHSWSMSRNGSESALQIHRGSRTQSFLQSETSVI
In words: DiscoveRx cAMP assay, in vitro potency at rat VPAC2 receptor. It is filed as cell-based. The note with it: CHO-PO cells transiently transfected with rat VPAC2; cAMP generation; mean of two independent runs. The protocol:
DiscoveRx: CHO-PO cells are transiently transfected with rat VPAC1 or VPAC2 receptor DNA using commercially available transfection reagents (Lipofectamine from Invitrogen). The cells are seeded at a density of 10,000/well in a 96-well plate and are allowed to grow for 3 days in […] culture medium. At day 3, the assay is performed.
On the day of the experiment, the medium is removed. Also, the cells are washed twice. The cells are incubated in assay buffer plus IBMX for 15 minutes at room temperature. Afterwards, the stimuli are added and are dissolved in assay buffer. The stimuli are present for 30 minutes. Then, the assay buffer is gently removed. The cell lysis reagent of the DiscoveRx cAMP kit is added. Thereafter, the standard protocol for developing the cAMP signal as described by the manufacturer is used (DiscoveRx Inc., USA). EC50 values for cAMP generation are calculated from the raw signal or are based on absolute cAMP levels as determined by a standard curve performed on each plate.
Results for each agonist are the mean of two independent runs. Rat VPAC1 and VPAC2 results are only generated using the DiscoveRx assay.

SMILES strings stand for the structures. Square brackets hold non-standard residues; d marks the D form. Peptide text beside a SMILES is read from it. * marks the point of attachment. Orn = NCCC[C@H](N)C(=O)O; Hexanoyl = CCCCCC(=O)*; Aib = CC(C)(N)C(=O)O Some results are limits rather than exact numbers.

Description for human PAC1: For this assay, the solutions and equipment include:
Presoak solution: 0.5% Polyethyleneamine in Aqua dest
Buffer for flushing filter plates: 25 mM HEPES pH 7.4
Blocking buffer: 25 mM HEPES pH 7.4; 0.2% protease free BSA
Assay buffer: 25 mM HEPES pH 7.4; 0.5% protease free BSA
Dilution and assay plate: PS-Microplate, U form
Filtration Plate: Multiscreen FB Opaque Plate; 1.0 μM Type B Glasfiber filter
In order to prepare the filter plates, the presoak solution is aspirated by vacuum filtration. The plates are flushed twice with 200 μL flush buffer. 200 μL blocking buffer is added to the filter plate. The filter plate is then incubated with 200 μL presoak solution for 1 hour at room temperature.
The assay plate is filled with 25 μL assay buffer, 25 μL membranes (2.5 μg) suspended in assay buffer, 25 μL compound (agonist) in assay buffer, and 25 μL tracer (about 40000 cpm) in assay buffer. The filled plate is incubated for 1 hour with shaking.
The transfer from assay plate to filter plate is conducted. The blocking buffer is aspirated by vacuum filtration and washed two times with flush buffer. 90 μL is transferred from the assay plate to the filter plate. The 90 μL transferred from assay plate is aspirated and washed three times with 200 μL flush buffer. The plastic support is removed. It is dried for 1 hour at 60° C. 30 μL Microscint is added. The count is performed.

Regarding `CCCCCC(=O)N[C@@H](Cc1c[nH]cn1)C(=O)N[C@@H](CO)C(=O)N[C@@H](CC(=O)O)C(=O)N[C@@H](C)C(=O)N[C@H](C(=O)N[C@@H](Cc1ccccc1)C(=O)N[C@H](C(=O)N[C@@H](CC(=O)O)C(=O)N[C@@H](CC(N)=O)C(=O)N[C@@H](Cc1ccc(O)cc1)C(=O)N[C@H](C(=O)N[C@@H](CCCN)C(=O)N[C@@H](CC(C)C)C(=O)N[C@@H](CCCNC(=N)N)C(=O)NC(C)(C)C(=O)N[C@@H](CCC(N)=O)C(=O)N[C@H](C(=O)N[C@@H](C)C(=O)N[C@@H](C)C(=O)NC(C)(C)C(=O)N[C@@H](CO)C(=O)N[C@@H](Cc1ccc(O)cc1)C(=O)N[C@@H](CC(C)C)C(=O)N[C@@H](CCC(N)=O)C(=O)N[C@@H](CO)C(=O)N[C@H](C(=O)N[C@@H](CCCN)C(=O)N[C@@H](CC(N)=O)C(=O)N[C@@H](CCCN)C(=O)NCC(=O)NCC(=O)N1CCC[C@H]1C(=O)N[C@@H](CO)C(=O)N[C@@H](CO)C(=O)NCC(=O)N[C@@H](C)C(=O)N1CCC[C@H]1C(=O)N1CCC[C@H]1C(=O)N1CCC[C@H]1C(=O)N[C@@H](CO)C(=O)O)[C@@H](C)CC)C(C)C)[C@@H](C)O)[C@@H](C)O)C(C)C` [Agonist P386] (Hexanoyl-HSDAVFTDNYT[Orn]LR[Aib]QVAA[Aib]SYLQSI[Orn]N[Orn]GGPSSGAPPPS-OH; C-terminus assumed), a half-maximal effect at human VPAC2 (EC50) was put at 0.65 nM. The results for the 50% inhibitory concentration (IC50) at human VPAC1 and at human PAC1 were greater than 3000 nM and greater than 25000 nM, respectively. In addition, in data set [1], the “Rat Serum Stability (estimated purity in % after overnight incub.)” value is 71.47%.
On to `CCCCCC(=O)N[C@@H](Cc1c[nH]cn1)C(=O)N[C@@H](CO)C(=O)N[C@@H](CC(=O)O)C(=O)N[C@@H](C)C(=O)N[C@H](C(=O)N[C@@H](Cc1ccccc1)C(=O)N[C@H](C(=O)N[C@@H](CC(=O)O)C(=O)N[C@@H](CC(N)=O)C(=O)N[C@@H](Cc1ccc(O)cc1)C(=O)N[C@H](C(=O)N[C@@H](CCCN)C(=O)N[C@@H](CC(C)C)C(=O)N[C@@H](CCCNC(=N)N)C(=O)NC(C)(C)C(=O)N[C@@H](CCC(N)=O)C(=O)N[C@H](C(=O)N[C@@H](C)C(=O)N[C@@H](C)C(=O)NC(C)(C)C(=O)N[C@@H](CCCCN)C(=O)N[C@@H](Cc1ccc(O)cc1)C(=O)N[C@@H](CC(C)C)C(=O)N[C@@H](CO)C(=O)N[C@@H](CO)C(=O)N[C@H](C(=O)N[C@@H](CCCN)C(=O)N[C@@H](CC(N)=O)C(=O)N[C@@H](CCCN)C(=O)NCC(=O)NCC(=O)N1CCC[C@H]1C(=O)N[C@@H](CO)C(=O)N[C@@H](CO)C(=O)NCC(=O)N[C@@H](C)C(=O)N1CCC[C@H]1C(=O)N1CCC[C@H]1C(=O)N1CCC[C@H]1C(=O)N[C@@H](CO)C(=O)O)[C@@H](C)CC)C(C)C)[C@@H](C)O)[C@@H](C)O)C(C)C` [Agonist P383] (Hexanoyl-HSDAVFTDNYT[Orn]LR[Aib]QVAA[Aib]KYLSSI[Orn]N[Orn]GGPSSGAPPPS-OH; C-terminus assumed), for which the EC50 on human VPAC2 was 0.12 nM; at rat VPAC2 receptor it was 0.18 nM. Further, the IC50 was greater than 3000 nM at human VPAC1 and greater than 25000 nM at human PAC1. In data set [1], the “Rat Serum Stability (estimated purity in % after overnight incub.)” value is listed as 113.66%.
For `CCCCCC(=O)N[C@@H](Cc1c[nH]cn1)C(=O)N[C@@H](CO)C(=O)N[C@@H](CC(=O)O)C(=O)N[C@@H](C)C(=O)N[C@H](C(=O)N[C@@H](Cc1ccccc1)C(=O)N[C@H](C(=O)N[C@@H](CC(=O)O)C(=O)N[C@@H](CC(N)=O)C(=O)N[C@@H](Cc1ccc(O)cc1)C(=O)N[C@H](C(=O)N[C@@H](CCCNC(=N)N)C(=O)N[C@@H](CC(C)C)C(=O)N[C@@H](CCCNC(=N)N)C(=O)NC(C)(C)C(=O)N[C@@H](CCC(N)=O)C(=O)N[C@H](C(=O)N[C@@H](C)C(=O)N[C@@H](C)C(=O)NC(C)(C)C(=O)N[C@@H](CCCCN)C(=O)N[C@@H](Cc1ccc(O)cc1)C(=O)N[C@@H](CC(C)C)C(=O)N[C@@H](CCC(N)=O)C(=O)N[C@@H](CO)C(=O)N[C@H](C(=O)N[C@@H](CCCCN)C(=O)NC(C)(C)C(=O)N[C@@H](CCCN)C(=O)NCC(=O)NCC(=O)N1CCC[C@H]1C(=O)N[C@@H](CO)C(=O)N[C@@H](CO)C(=O)NCC(=O)N[C@@H](C)C(=O)N1CCC[C@H]1C(=O)N1CCC[C@H]1C(=O)N1CCC[C@H]1C(=O)N[C@@H](CO)C(=O)O)[C@@H](C)CC)C(C)C)[C@@H](C)O)[C@@H](C)O)C(C)C` [Agonist P357], the EC50 at human VPAC2 was found to be 0.23 nM. Moreover, the IC50 is greater than 3000 nM on human VPAC1 and greater than 25000 nM at human PAC1. Besides, the “Rat Serum Stability (estimated purity in % after overnight incub.)” value in data set [1] was 38.83%.
The like results for `CCCCCC(=O)N[C@@H](Cc1c[nH]cn1)C(=O)N[C@@H](CO)C(=O)N[C@@H](CC(=O)O)C(=O)N[C@@H](C)C(=O)N[C@H](C(=O)N[C@@H](Cc1ccccc1)C(=O)N[C@H](C(=O)N[C@@H](CC(=O)O)C(=O)N[C@@H](CC(N)=O)C(=O)N[C@@H](Cc1ccc(O)cc1)C(=O)N[C@H](C(=O)N[C@@H](CCCN)C(=O)N[C@@H](CC(C)C)C(=O)N[C@@H](CCCNC(=N)N)C(=O)NC(C)(C)C(=O)N[C@@H](CCC(N)=O)C(=O)N[C@H](C(=O)N[C@@H](C)C(=O)N[C@@H](C)C(=O)NC(C)(C)C(=O)N[C@@H](CCCN)C(=O)N[C@@H](Cc1ccc(O)cc1)C(=O)N[C@@H](CC(C)C)C(=O)N[C@@H](CCC(N)=O)C(=O)N[C@@H](CO)C(=O)N[C@H](C(=O)N[C@@H](CCCN)C(=O)N[C@@H](CCCN)C(=O)NCC(=O)NCC(=O)N1CCC[C@H]1C(=O)N[C@@H](CO)C(=O)N[C@@H](CO)C(=O)NCC(=O)N[C@@H](C)C(=O)N1CCC[C@H]1C(=O)N1CCC[C@H]1C(=O)N1CCC[C@H]1C(=O)N[C@@H](CO)C(=O)O)[C@@H](C)CC)C(C)C)[C@@H](C)O)[C@@H](C)O)C(C)C` [Agonist P397] (Hexanoyl-HSDAVFTDNYT[Orn]LR[Aib]QVAA[Aib][Orn]YLQSI[Orn][Orn]GGPSSGAPPPS-OH; C-terminus assumed) were, in that order, 0.15 nM, greater than 3000 nM, greater than 25000 nM and 71.07%.
